Read-outs that look alike come from different tables or passages of the source.
How the values were obtained:
Assay type in all cases: biochemical
Odc2p [1] = target: T1, Odc2p (Saccharomyces cerevisiae, UniProt Q99297); assay: Dependence on internal substrate of [14C]oxoglutarate uptake into proteoliposomes reconstituted with recombinant Odc2p; settings: for [14C]oxoglutarate transport: proteoliposomes preloaded with 20 mM internal substrate, 0.6 mM [14C]oxoglutarate, 45 seconds
T1 construct: made in house; host or cells: S. cerevisiae odc1Δodc2Δ (YPH499 background) carrying pYES2-based pODC2; purified from mitochondria on Ni-NTA agarose
T1 sequence (Q99297 1-307): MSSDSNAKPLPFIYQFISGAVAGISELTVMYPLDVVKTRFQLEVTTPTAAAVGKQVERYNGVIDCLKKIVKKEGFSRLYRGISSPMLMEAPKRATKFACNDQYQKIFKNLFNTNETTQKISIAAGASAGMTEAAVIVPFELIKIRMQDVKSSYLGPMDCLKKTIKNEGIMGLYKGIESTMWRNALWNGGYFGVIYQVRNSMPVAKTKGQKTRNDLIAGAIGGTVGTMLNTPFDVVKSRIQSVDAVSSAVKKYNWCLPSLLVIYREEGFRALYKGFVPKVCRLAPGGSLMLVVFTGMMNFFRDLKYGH
Procedure: (§1) Reconstitution of the ODC proteins into liposomes—Purified ODC proteins were reconstituted by cyclic removal of the detergent with a hydrophobic column (13). The composition of the initial mixture used for reconstitution was: 200 μl of purified isoform (0.3-0.4 μg of protein), 70 μl of 10% Triton X-114, 100 μl of 10% phospholipids in the form of sonicated liposomes, 20 mM oxoglutarate (except where otherwise indicated), 10 mM Pipes (pH 7.0), 0.7 mg of cardiolipin (Sigma) and water to a final volume of 700 μl. These components were mixed thoroughly, and the mixture was recycled 13 times through an Amberlite column (Supelco) (3.0 cm×0.5 cm) preequilibrated with a buffer containing 10 mM Pipes (pH 7.0) and with the substrate at the same concentration as in the starting mixture. All operations were performed at 4° C., except the passages through Amberlite, which were carried out at room temperature.
(§2) External substrate was removed from proteoliposomes on a Sephadex G-75 column preequilibrated with buffer F (50 mM NaCl and 10 mM PIPES, pH 7.0). Transport at 25° C. was started by adding [^14C]oxoglutarate (unless otherwise indicated) to the proteoliposomes, and terminated by addition of 30 mM pyridoxal 5′-phosphate and 10 mM bathophenanthroline (the “inhibitor-stop” method (13)). In controls, inhibitors were added with the labelled substrate. The external radioactivity was removed on Sephadex G-75 and the internal radioactivity was measured. […] The initial rate of transport was calculated in mmol/min per g protein from the time course of isotope equilibration (13). Various other transport activities were also assayed by the inhibitor-stop method. For efflux measurements, the internal substrate pool of the proteoliposomes was made radioactive by carrier-mediated exchange equilibration (13) with 0.1 mM [^14C]oxoglutarate added at high specific radioactivity. After 60 min, the residual external radioactivity was removed by passing the proteoliposomes again through a column of Sephadex G-75. Efflux was started by adding unlabelled external substrate or buffer F alone and terminated by adding the inhibitors indicated above.
(§3) The substrate specificity of purified Odc1p and Odc2p was investigated further by measuring the uptake of [^14C]oxoglutarate into proteoliposomes which had been preloaded with various substrates.
(§4) Proteoliposomes were preloaded internally with various substrates (concentration, 20 mM). Transport was started by adding [^14C]oxoglutarate (final concentration, 0.6 mM) and terminated after 45 seconds.

Odc1p [2] = target: T2, Odc1p (Saccharomyces cerevisiae, UniProt Q03028); assay: Dependence on internal substrate of [14C]oxoglutarate uptake into proteoliposomes reconstituted with recombinant Odc1p; settings: for [14C]oxoglutarate transport: proteoliposomes preloaded with 20 mM internal substrate, 0.6 mM [14C]oxoglutarate, 45 seconds
T2 construct: made in house; host or cells: S. cerevisiae odc1Δodc2Δ (YPH499 background) carrying pYES2-based pODC1; purified from mitochondria on Ni-NTA agarose
T2 sequence (Q03028 1-310): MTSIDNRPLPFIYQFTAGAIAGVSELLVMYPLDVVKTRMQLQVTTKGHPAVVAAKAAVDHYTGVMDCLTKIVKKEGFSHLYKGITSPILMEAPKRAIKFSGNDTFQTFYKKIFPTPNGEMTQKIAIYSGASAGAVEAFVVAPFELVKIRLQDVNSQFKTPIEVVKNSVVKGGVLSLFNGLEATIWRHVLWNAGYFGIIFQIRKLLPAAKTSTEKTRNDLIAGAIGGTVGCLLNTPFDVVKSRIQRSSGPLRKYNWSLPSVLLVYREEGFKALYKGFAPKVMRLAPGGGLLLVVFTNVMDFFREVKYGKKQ
Procedure: as §1, §2, §3, §4

Odc1p [3] = target: T2, Odc1p; assay: Effect of inhibitors and external compounds on the [14C]oxoglutarate/oxoglutarate exchange by proteoliposomes reconstituted with Odc1p; settings: for effect of oxomonocarboxylates on the rate of uptake of 0.4 mM oxoglutarate (in words): 8 mM, 20 times greater than the substrate, data not shown
Procedure: FIG. 5. Effect of dicarboxylates and 2-oxodicarboxylates with different carbon chain length on the rate of [^14C]oxoglutarate uptake into proteoliposomes reconstituted with recombinant Odc1p. Proteoliposomes were preloaded with 20 mM oxoglutarate and reconstituted with recombinant Odc1p. Transport was initiated by the addition of 0.4 mM [^14C]oxoglutarate and terminated after 45 seconds. Oxalate, malonate, succinate, glutarate, adipate, pimelate, suberate (▪) and the corresponding 2-oxoacids (●) were added simultaneously with [1^4C]oxoglutarate at 4.0 mM concentration.
as §1, §2
(§5) In addition, the ability of non-radioactive potential substrates to inhibit the oxoglutarate/oxoglutarate exchange was examined.
Proteoliposomes were preloaded internally with 20 mM oxoglutarate and transport was initiated by the addition of 0.4 mM [^14C]oxoglutarate.

Odc2p [4] = target: T1, Odc2p; assay: Effect of inhibitors and external compounds on the [14C]oxoglutarate/oxoglutarate exchange by proteoliposomes reconstituted with Odc2p; settings: for effect of oxomonocarboxylates on the rate of uptake of 0.4 mM oxoglutarate (in words): 8 mM, 20 times greater than the substrate
Procedure: as §1, §2, §5
Proteoliposomes were preloaded internally with 20 mM oxoglutarate and transport was initiated by the addition of 0.4 mM [^14C]oxoglutarate. The incubation time was 45 seconds. Thiol reagents and α-cyanocinnamate were added 2 min before the labelled substrate; the other inhibitors and external substrates were added together with [^14C]oxoglutarate. The final concentration of the inhibitors was 4 mM, except for mercurials (10 μM), carboxyatractyloside (0.1 mM), N-ethylmaleimide and α-cyanocinnamate (2 mM).

Odc2p [5] = target: T1, Odc2p; assay: Homoexchange of other substrates in proteoliposomes reconstituted with Odc2p; settings: internal concentration 10 mM, external concentration 1 mM
Procedure: as §2
(§6) In order to obtain further information about the mechanism of transport catalyzed by Odc1p and Odc2p, the efflux of [^14C]oxoglutarate from pre-labelled active proteoliposomes was investigated as it provides a more convenient assay for unidirectional transport (13).

Odc1p [6] = target: T2, Odc1p; assay: Homoexchange of other substrates in proteoliposomes reconstituted with Odc1p; settings: internal concentration 10 mM, external concentration 1 mM
Procedure: as §2, §6

[7] = Odc2p, proteoliposomes preloaded with various substrates
[8] = Odc1p, proteoliposomes preloaded with various substrates
[9] = Odc1p, added with 0.4 mM [14C]oxoglutarate, 4.0 mM in FIG. 5, partly data not shown

| Compound | [14C]oxoglutarate uptake with the internal substrate (in words) (Odc2p [1]; [7]) | [14C]oxoglutarate uptake with the internal substrate (in words) (Odc1p [2]; [8]) | [14C]oxoglutarate transport (Odc2p [1]; Odc2p) | [14C]oxoglutarate transport (Odc1p [2]; Odc1p) | further results |
| --- | --- | --- | --- | --- | --- |
| NC(CCCC(=O)O)C(=O)O (stereo not shown) [2-aminoadipate] | no exchange | no exchange | – | – | – |
| O=C(O)C(=O)O [oxalate] | no exchange | no exchange | – | – | effect of non-radioactive potential substrates on the rate of oxoglutarate uptake (in words) (Odc1p [3]; [9]): virtually no effect; effect of non-radioactive potential substrates on the rate of oxoglutarate uptake (in words) (Odc2p [4]; Odc2p, data not shown): virtually no effect |
| CCCC(=O)C(=O)O [2-oxovalerate] | no exchange | no exchange | – | – | effect of oxomonocarboxylates on the rate of uptake of 0.4 mM oxoglutarate (in words) (Odc1p [3]; Odc1p): did not influence; effect of oxomonocarboxylates on the rate of uptake of 0.4 mM oxoglutarate (in words) (Odc2p [4]; Odc2p, data not shown): did not influence |
| CCC(=O)C(=O)O [2-oxobutyrate] | no exchange | no exchange | – | – | effect of oxomonocarboxylates on the rate of uptake of 0.4 mM oxoglutarate (in words) (Odc1p [3]; Odc1p): did not influence; effect of oxomonocarboxylates on the rate of uptake of 0.4 mM oxoglutarate (in words) (Odc2p [4]; Odc2p, data not shown): did not influence |
| C[N+](C)(C)CC(O)CC(=O)[O-] (stereo not shown) [carnitine] | no exchange | no exchange | – | – | homoexchange catalyzed by the proteoliposomes (in words) (Odc2p [5]): did not catalyze homoexchanges; homoexchange catalyzed by the proteoliposomes (in words) (Odc1p [6]): did not catalyze homoexchanges |
| phosphate | no exchange | no exchange | – | – | homoexchange catalyzed by the proteoliposomes (in words) (Odc2p [5]): did not catalyze homoexchanges; homoexchange catalyzed by the proteoliposomes (in words) (Odc1p [6]): did not catalyze homoexchanges |
| O=C(O)/C=C\C(=O)O [Maleate] | very low activity | very low activity | 2.6 mmol/min per g protein | 7.1 mmol/min per g protein | effect of non-radioactive potential substrates on the rate of oxoglutarate uptake (in words) (Odc1p [3]; [9]): no effect; effect of non-radioactive potential substrates on the rate of oxoglutarate uptake (in words) (Odc2p [4]; Odc2p, data not shown): no effect |
| O=S(=O)(O)O [sulfate] | – | – | – | – | homoexchange catalyzed by the proteoliposomes (in words) (Odc2p [5]): did not catalyze homoexchanges; [14C]oxoglutarate uptake with the internal substrate (in words) (Odc2p [1]): no exchange; homoexchange catalyzed by the proteoliposomes (in words) (Odc1p [6]): did not catalyze homoexchanges; [14C]oxoglutarate uptake with the internal substrate (in words) (Odc1p [2]): no exchange |
| O=C(O)/C=C/C(=O)O [Fumarate] | very low activity | very low activity | 2.4 mmol/min per g protein | 8.9 mmol/min per g protein | effect of non-radioactive potential substrates on the rate of oxoglutarate uptake (in words) (Odc1p [3]; [9]): no effect; effect of non-radioactive potential substrates on the rate of oxoglutarate uptake (in words) (Odc2p [4]; Odc2p, data not shown): no effect |
| O=C(O)CCCCCC(=O)O [Pimelate] | taken up efficiently | taken up efficiently | 10.4 mmol/min per g protein | 48.4 mmol/min per g protein | effect of non-radioactive potential substrates on the rate of oxoglutarate uptake (in words) (Odc1p [3]): significant inhibition; effect of non-radioactive potential substrates on the rate of oxoglutarate uptake (in words) (Odc2p [4]): significant inhibition |
| O=C(O)CC(=O)O [Malonate] | very low activity | very low activity | 2.2 mmol/min per g protein | 4.8 mmol/min per g protein | effect of non-radioactive potential substrates on the rate of oxoglutarate uptake (in words) (Odc1p [3]; [9]): virtually no effect; effect of non-radioactive potential substrates on the rate of oxoglutarate uptake (in words) (Odc2p [4]; Odc2p, data not shown): virtually no effect |
| O=C(O)C[C@@H](O)C(=O)O [D-malate] | taken up efficiently | taken up efficiently | 10.5 mmol/min per g protein | 52.1 mmol/min per g protein | – |
| O=C(O)CCCCC(=O)O [Adipate] | taken up efficiently | taken up efficiently | 16.7 mmol/min per g protein | 65.0 mmol/min per g protein | effect of non-radioactive potential substrates on the rate of oxoglutarate uptake (in words) (Odc1p [3]): significant inhibition; effect of non-radioactive potential substrates on the rate of oxoglutarate uptake (in words) (Odc2p [4]): significant inhibition |
| NC(CCCCC(=O)O)C(=O)O (stereo not shown) [2-aminopimelate] | no exchange | no exchange | – | – | – |
| NCCC[C@H](N)C(=O)O [ornithine] | – | – | – | – | homoexchange catalyzed by the proteoliposomes (in words) (Odc2p [5]): did not catalyze homoexchanges; homoexchange catalyzed by the proteoliposomes (in words) (Odc1p [6]): did not catalyze homoexchanges |
| CC[C@H](O)C(=O)O [2-hydroxybutyrate] | no exchange | no exchange | – | – | – |
| Nc1ncnc2c1ncn2[C@@H]1O[C@H](COP(=O)(O)OP(=O)(O)OP(=O)(O)O)[C@@H](O)[C@H]1O [ATP] | no exchange | no exchange | – | – | – |
| O=S(O)(O)=S [thiosulfate] | – | – | – | – | [14C]oxoglutarate uptake with the internal substrate (in words) (Odc2p [1]): no exchange; [14C]oxoglutarate uptake with the internal substrate (in words) (Odc1p [2]): no exchange |
| O=C(O)CCCCCCC(=O)O [Suberate] | very low activity | very low activity | 0.4 mmol/min per g protein | 2.8 mmol/min per g protein | effect of non-radioactive potential substrates on the rate of oxoglutarate uptake (in words) (Odc1p [3]): virtually no effect; effect of non-radioactive potential substrates on the rate of oxoglutarate uptake (in words) (Odc2p [4]): virtually no effect |

Reference: patent publication US20020155192A1, “Yeast transport isoforms” (priority 2000, published 2002)
